Source: patent US20110212199A1, “AGENT FOR TREATING EYE DISEASES” (priority 2003, published 2011)
“Also recorded” adds a separate entry of the source.

Key:
[1] = system: corneal endothelial cells; test: Example 27: regeneration and protection of corneal endothelial cells; assay type: in vivo, human; details: 10 days
Excerpt: As a measurement device, NONCON ROBO (KONAN INC) specular microscope was used.

[2] = system: Posner-Schlossmans' Syndrome; test: Example 21: Posner-Schlossmans' Syndrome; assay type: in vivo, human
Mooren's corneal ulcer = test: Example 18: corneal ulcer; assay type: in vivo, human; details: person, right eye; 1 mg/l, 1 drop (50 μl) twice a day
Excerpt: Thus, it can be considered that treatment of autoimmune disease is possible.

[3] = system: high intraocular pressure open-angle glaucoma; test: Example 10: high intraocular pressure open-angle glaucoma patient; assay type: in vivo, human; design: intraocular pressure, right: dose or concentration left out as unconfirmed
Description: The patient is person diagnosed as high intraocular pressure open-angle glaucoma. Water-soluble 17β-estradiol inclusion product (Cyclodextrin-encapsulated 17β-estradiol available from SIGMA CO. […] To the above-mentioned patient, 1 drop (25 μl) of eye drops was dropped once every morning for a week.

dynamic visual acuity = test: Example 26: dynamic visual acuity; assay type: in vivo, human; details: person, left eye; 10 μg/ml, 50 μl one time; 30 minutes to 1 hour and 15 minutes after dropping
[4] = system: granular corneal degeneration; test: Example 19: corneal degeneration; assay type: in vivo, human
presbyopia [5] = test: Example 16: presbyopia, corrected near visual acuity; assay type: in vivo, human; details: after 14 days; before 0.4
Excerpt: To […] with presbyopia having corrected near visual acuity (near vision after correction) before treatment of […]

normal tension glaucoma = test: Example 9: normal tension glaucoma patient; assay type: in vivo, human
Description: The patient is person diagnosed as normal tension glaucoma. Water-soluble 17β-estradiol inclusion product (Cyclodextrin-encapsulated 17β-estradiol available from SIGMA CO. […] To the above-mentioned patient, 1 drop (25 μl) of eye drops was dropped per one eye once every morning for 10 days.

chorioretinal hemorrhage = test: Example 17: chorioretinal hemorrhage; assay type: in vivo, human; details: person, right eye; 1 mg/l, 1 drop (50 μl) once every morning, with Adona 30 mg a day orally
iridocyclitis = test: Example 20: iridocyclitis; assay type: in vivo, human; details: person, right eye; 1 mg/l, 1 drop (50 μl) every morning; after 1 week
diabetic retinopathy = test: Example 24: diabetic retinopathy; assay type: in vivo, human
[6] = system: cataract in ultraviolet ray irradiated eyes of mouse; test: Treatment of cataract (animal experiment), UV-A+UV-B irradiation; assay type: in vivo
Description: Control group (Control): To eyes of mouse (4 eyes) were irradiated ultraviolet rays UV-A+UV-B (each 0.36J: 100 μW×1 hour) from 10 PM to 11 PM at the first day, the third day, the fifth day each once, and three times in total. Provided that, before 1 minute and after 1 minute of each ultraviolet ray irradiation, 1 drop (50 μl) of PBS (phosphate buffered physiological saline) was administered, and 1 drop of PBS was administered each once at the second day, the fourth day, the sixth day, the seventh day, the eighth day, the ninth day and the tenth day.
Pre-administered group of ultraviolet ray irradiation (Pre 0.1 g/l and Pre 0.01 g/l): To eyes of mouse were irradiated ultraviolet rays UV-A+UV-B (each 0.36J: 100 pW×1 hour) from 10 PM to 11 PM at the first day, the third day, the fifth day each once, and three times in total.
Post-administered group of ultraviolet ray irradiation (Post 0.1 g/l and Post 0.01 g/l): To eyes of mouse were irradiated ultraviolet rays UV-A+UV-B (each 0.36J: 100 μW×1 hour) from 10 PM to 11 PM at the first day, the third day and the fifth day each once, and three times in total.

schizophrenia = test: Example 22: central nerve diseases (schizophrenia patient); assay type: in vivo, human
[7] = system: intraocular pressure of house rabbit; test: Effects on intraocular pressure (animal experiment); assay type: in vivo, colored house rabbits
Description: For the experiments, five (10 eyes) colored house rabbits (body weight: 1.8 to 2 kg) with 8 months to 10 months from the birth were used. […] Intraocular pressure of the house rabbit before treating with eye drops/eye washes was 14 mmHg at 1 PM. […] The maximum dropping of the intraocular pressure appeared after 50 minutes from washing. Lowering effects of intraocular pressure continued at least up to after 5 hours from washing. […] This house rabbit was immediately washed again with the same eye drops/eye washes, intraocular pressure was lowered up to 13 mmHg after 45 minutes from washing. The house rabbit subjected to eye drops/eye washes treatment was allowed to stand, and intraocular pressure was measured next day at 9 AM, it was 18 mmHg, and the effects of eye drops/eye washes at the previous day remained. […] The effects of administration can be found to be continued for a long time.

macular hole = test: Example 25: macular hole; assay type: in vivo, human
presbyopia [8] = test: Example 12: presbyopia, near point; assay type: in vivo, human; details: for near point, left eye: before 29 cm
Description: The patient is person of presbyopia having slight myopia of −2.5 dioptre and −1.0D of astigmatism. When a near point of the left eye of the patient was measured without lens correction, it was 29 cm. Water-soluble 17β-estradiol inclusion product (Cyclodextrin-encapsulated 17β-estradiol available from SIGMA CO. […] To the patient was dropped 1 drop (25 μl) of eye drops at 9 AM per each eye. […] Incidentally, the far point was 41±2 cm in average.

myopia = test: Example 15: myopia; assay type: in vivo, human
photopsia = test: Example 28: photopsia; assay type: in vivo, human; details: person; 10 mg/l, 1 drop (50 μl) once a day for 3 weeks

C[C@]12CC[C@@H]3c4ccc(O)cc4CC[C@H]3[C@@H]1CC[C@@H]2O [17β-estradiol]
number of left eye endothelial cells ([1]; before 2906): 3496 per mm^2 | number of right eye endothelial cells ([1]; person, 1 mg/l, 1 drop (50 μl) once a day, before 2801): 3410 cells/mm² | iritis ([2]; after 1 week): iritis disappeared | intraocular pressure Tos ([2]; patient, left eye, 1 mg/l, 1 drop (50 μl) once a day for 1 week, before 36): 17 mmHg | time in which the disease was cured (Mooren's corneal ulcer): 3 weeks | intraocular pressure, left ([3]; after a week, before 24): 18 mmHg | visual field, left eye ([3]; after a week, progressed defect before): slightly improved | visual field, right eye ([3]; after a week, slight defect before): substantially normally recovered | intraocular pressure, left ([3]; at 3 weeks): 19 mmHg | intraocular pressure, right ([3]; at 3 weeks): 20 mmHg | intraocular pressure, right ([3]; person, inclusion product […], 1 drop (25 μl) every morning, after a week, before 23): 16 mmHg | dynamic visual acuity (KV-100) (dynamic visual acuity): abruptly improved | Vs vision after correction ([4]; (1) 2 weeks, before n·c): 0.8 | visual acuity Vs ([4]; (1) person, left eye, 1 mg/l, 1 drop twice a day, 2 weeks, before 0.6 (n·c)): 0.4 | near vision after correction Vs (30 cm) (presbyopia [5]): 0.7 | visual field by Octopus 1-2-3 (normal tension glaucoma; after 10 days): both eyes extremely well improved | intraocular pressure, left (normal tension glaucoma; after 10 days, before 12): 9 mmHg | intraocular pressure, right (normal tension glaucoma; person, 100 mg/l, 1 drop (25 μl) every morning for 10 days, before 14): 12 mmHg | time until hemorrhage disappeared (chorioretinal hemorrhage): 45 days | iridocyclitis outcome (iridocyclitis): inflammatory cells in anterior chamber disappeared | retinal bleeding (diabetic retinopathy; after about 100 days): retinal bleeding was disappeared | retinal bleeding, photograph of eyegrounds (diabetic retinopathy; person, 1 mg/l, 1 drop (50 μl) once everyday, after about 2 months): slightly improved | appearance of cataract, pre-administered vs post-administered group ([6]; administered 1 minute before vs after irradiation): less appearance of cataract | occurrence of cataract at the tenth day ([6]; eye drops 0.1 g/l or 0.01 g/l, 1 drop (50 μl), pre- and post-administered groups, vs PBS control): occurrence of cataract had scarcely observed | visual acuity Vs (schizophrenia; after 14 days, initiation 0.09): Vs = 0.1 × IOL (0.1) | Vs vision after correction (schizophrenia; after 14 days, initiation 0.1): Vs = 0.1 × IOL (0.1) | Vs vision after correction (schizophrenia; after 42 days): 0.1 | visual acuity Vs (schizophrenia; after 42 days): 0.09 | Vs vision after correction (schizophrenia; after 77 days): 0.15 | visual acuity Vs (schizophrenia; after 77 days): 0.1 | Vs vision after correction (schizophrenia; after 115 days): 0.2 | visual acuity Vs (schizophrenia; after 115 days): 0.09 | mental state (schizophrenia; patient's statement after 42 days, overall): improvement in mental state; also recorded: be encouraged | intraocular pressure ([7]; 25 μl (1 drop) of 100 mg/l at 1 PM, after 3.5 hours, before 14 mmHg): 10 mmHg | time the intraocular pressure effect continued ([7]; after 25 μl drop at 1 PM): ≥ 5 h | time the lowering effect of intraocular pressure continued ([7]; after washing): ≥ 5 h | time of maximum dropping of intraocular pressure ([7]; after washing with 100 mg/l eye washes at 1 PM): 50 min | intraocular pressure ([7]; high-pressure eye, 45 minutes after second washing): 13 mmHg | intraocular pressure ([7]; high-pressure eye, next day 9 AM, before further administration): 18 mmHg | intraocular pressure ([7]; high-pressure eye, second day, 1 hour 50 minutes after third 25 μl drop): 12 mmHg | intraocular pressure ([7]; high-pressure eye, second day, 3 hours 15 minutes after 25 μl drop): 13 mmHg | intraocular pressure ([7]; high-pressure eye, second day, 3 hours 15 minutes after second 25 μl drop): 13 mmHg | intraocular pressure ([7]; high-pressure eye, third day 3:15 PM): 12 mmHg | intraocular pressure ([7]; high-pressure eye, third day 6 PM): 11 mmHg | intraocular pressure ([7]; high-pressure eye, third day 9 AM before administration): 10 mmHg | intraocular pressure ([7]; high-pressure eye, third day noon, 3 hours after 25 μl drop): 9 mmHg | intraocular pressure ([7]; rabbit with one high-pressure eye, 24 mmHg before, 15 minutes after washing at 5 PM): 15 mmHg | visual acuity, left eye (macular hole; after 1 month, before 0.7): 1.2 | macular hole outcome (macular hole; person, left eye, 10 mg/l, 1 drop (50 μl) twice a day for 1 month): macular hole was cured | near point, left eye (presbyopia [8]; after 3 hours): 24 cm | far point, average (presbyopia [8]; in vivo): 41±2 cm | maximum improvement in refraction (near point) (presbyopia [8]; in vivo): 5 cm | near point, left eye (presbyopia [8]; person, 100 mg/l, 1 drop (25 μl), after 1 hour): 27 cm | visual acuity Vs (myopia; (1) after 9 days, before 0.6): 1.0 | visual acuity Vs (myopia; (2) after 45 days, before 0.3): 0.5 | photopsia symptom (photopsia): the symptom was lightened
